Data published in PubChem BioAssay AID248 (DTP/NCI, 2004).
Where “and” joins values, the source holds several entries; their conditions need not be identical. Equal entries are not always repeated. Inconclusive results and toxic doses are left out.

Test system: L1210 leukemia ip in BDF1 mice, survival T/C
Experiment: NCI In Vivo Anticancer Drug Screen. Data for tumor model L1210 Leukemia (intraperitoneal) in B6D2F1 (BDF1) mice
Details: higher = longer survival
Method in brief: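 Transplantable tumor model; survival measured in treated vs vehicle control mice. Value = treated/control.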

[1] = endpoint: mean survival time, dose: 100.0 mg/kg/injection, schedule: Q01DX009 (ip), vehicle: Klucel (hydroxypropylcellulose) (HPC)
[2] = endpoint: mean survival time, dose: 200.0 mg/kg/injection, schedule: Q01DX009 (ip), vehicle: Klucel (hydroxypropylcellulose) (HPC)
[3] = endpoint: mean survival time, dose: 400.0 mg/kg/injection, schedule: Q01DX009 (ip), vehicle: Klucel (hydroxypropylcellulose) (HPC)
[4] = endpoint: mean survival time, dose: 100.0 mg/kg/injection, schedule: Q01DX009 (ip), vehicle: saline with Tween-80
[5] = endpoint: mean survival time, dose: 100.0 mg/kg/injection, schedule: Q01DX001 (ip), vehicle: carboxymethylcellulose (CMC)
[6] = endpoint: mean survival time, dose: 200.0 mg/kg/injection, schedule: Q01DX001 (ip), vehicle: carboxymethylcellulose (CMC)
[7] = endpoint: mean survival time, dose: 400.0 mg/kg/injection, schedule: Q01DX001 (ip), vehicle: carboxymethylcellulose (CMC)
[8] = endpoint: mean survival time, dose: 50.0 mg/kg/injection, schedule: Q01DX001 (ip), vehicle: carboxymethylcellulose (CMC)

FC(F)(Cl)c1nc2nc(Cl)c(Cl)nc2[nH]1
T/C (endpoint: mean survival time, dose: 50.0 mg/kg/injection, schedule: Q01DX009 (ip), vehicle: other): 96 % of control
T/C (endpoint: mean survival time, dose: 100.0 mg/kg/injection, schedule: Q01DX009 (ip), vehicle: other): 122 % of control
T/C (endpoint: mean survival time, dose: 100.0 mg/kg/injection, schedule: Q04DX003 (ip), vehicle: other): 114 % of control
T/C (endpoint: mean survival time, dose: 200.0 mg/kg/injection, schedule: Q04DX003 (ip), vehicle: other): 123 % of control
T/C (endpoint: mean survival time, dose: 400.0 mg/kg/injection, schedule: Q04DX003 (ip), vehicle: other): 96 % of control

O=C(O)c1ccc(N=Cc2c(Cl)cccc2Cl)cc1
T/C [1]: 104 % of control
T/C [2]: 101 % of control
T/C [3]: 104 % of control

CC(NC(=O)Oc1cccc(NC(=O)N(C)C)c1)C(C)(C)C (stereo unspecified)
T/C [4]: 109 % of control
T/C (endpoint: mean survival time, dose: 200.0 mg/kg/injection, schedule: Q01DX009 (ip), vehicle: saline with Tween-80): 96 % of control
T/C (endpoint: mean survival time, dose: 400.0 mg/kg/injection, schedule: Q01DX009 (ip), vehicle: saline with Tween-80): 98 % of control

CC(C)(C)c1cccc(Cl)c1O
T/C (endpoint: mean survival time, dose: 25.0 mg/kg/injection, schedule: Q01DX009 (ip), vehicle: saline with Tween-80): 102 % of control
T/C (endpoint: mean survival time, dose: 50.0 mg/kg/injection, schedule: Q01DX009 (ip), vehicle: saline with Tween-80): 93 % of control
T/C [4]: 96 % of control and 98 % of control

Clc1ccc(N=CC2CCC=CO2)cc1 (stereo unspecified)
T/C (endpoint: mean survival time, dose: 222.0 mg/kg/injection, schedule: Q01DX Z (ip), vehicle: saline): 92 % of control
T/C (endpoint: mean survival time, dose: 333.0 mg/kg/injection, schedule: Q01DX Z (ip), vehicle: saline): 95 % of control
T/C (endpoint: mean survival time, dose: 500.0 mg/kg/injection, schedule: Q01DX Z (ip), vehicle: saline): 92 % of control

NC(=S)N/N=C/c1c(Cl)[nH]c2ccccc12
T/C (endpoint: mean survival time, dose: 50.0 mg/kg/injection, schedule: Q04DX002 (ip), vehicle: saline): 98 % of control
T/C (endpoint: mean survival time, dose: 100.0 mg/kg/injection, schedule: Q04DX002 (ip), vehicle: saline): 102 % of control
T/C (endpoint: mean survival time, dose: 200.0 mg/kg/injection, schedule: Q04DX002 (ip), vehicle: saline): 98 % of control

CCCNC1=C(C)C(=O)C2=C(C1=O)[C@H](COC(N)=O)[C@]1(OC)[C@@H]3N[C@@H]3CN21
T/C (endpoint: mean survival time, dose: 2.9 mg/kg/injection, schedule: Q01DX001 (ip), vehicle: acetone): 109 % of control
T/C (endpoint: mean survival time, dose: 4.3 mg/kg/injection, schedule: Q01DX001 (ip), vehicle: acetone): 117 % of control
T/C (endpoint: mean survival time, dose: 4.5 mg/kg/injection, schedule: Q01DX009 (ip), vehicle: acetone): 118 % of control
T/C (endpoint: mean survival time, dose: 6.6 mg/kg/injection, schedule: Q01DX001 (ip), vehicle: saline): 108 % of control
T/C (endpoint: mean survival time, dose: 7.5 mg/kg/injection, schedule: Q01DX009 (ip), vehicle: acetone): 86 % of control
T/C (endpoint: mean survival time, dose: 9.9 mg/kg/injection, schedule: Q01DX001 (ip), vehicle: saline): 101 % of control
T/C (endpoint: mean survival time, dose: 15.0 mg/kg/injection, schedule: Q01DX001 (ip), vehicle: acetone): 165 % of control
T/C (endpoint: mean survival time, dose: 15.0 mg/kg/injection, schedule: Q01DX001 (ip), vehicle: saline): 110 % of control
T/C (endpoint: mean survival time, dose: 22.0 mg/kg/injection, schedule: Q01DX001 (ip), vehicle: acetone): 92 % of control
T/C (endpoint: mean survival time, dose: 22.0 mg/kg/injection, schedule: Q01DX001 (ip), vehicle: saline): 113 % of control

N#CSc1ccc(S(N)(=O)=O)cc1
T/C (endpoint: mean survival time, dose: 6.25 mg/kg/injection, schedule: Q01DX009 (ip), vehicle: Klucel (hydroxypropylcellulose) (HPC)): 94 % of control
T/C (endpoint: mean survival time, dose: 12.5 mg/kg/injection, schedule: Q01DX009 (ip), vehicle: Klucel (hydroxypropylcellulose) (HPC)): 92 % of control
T/C (endpoint: mean survival time, dose: 12.5 mg/kg/injection, schedule: Q04DX003 (ip), vehicle: Klucel (hydroxypropylcellulose) (HPC)): 100 % of control
T/C (endpoint: mean survival time, dose: 25.0 mg/kg/injection, schedule: Q01DX009 (ip), vehicle: Klucel (hydroxypropylcellulose) (HPC)): 106 % of control
T/C (endpoint: mean survival time, dose: 25.0 mg/kg/injection, schedule: Q04DX003 (ip), vehicle: Klucel (hydroxypropylcellulose) (HPC)): 105 % of control

CN(C)c1nc(N)nc2c1ncn2C1OC(CO)CC1O (stereo unspecified)
T/C [5]: 120 % of control
T/C [6]: 98 % of control
T/C [7]: 101 % of control

CC(C)(C)NCC1CCCC1
T/C (endpoint: mean survival time, dose: 20.0 mg/kg/injection, schedule: Q04DX003 (ip), vehicle: saline): 109 % of control
T/C (endpoint: mean survival time, dose: 40.0 mg/kg/injection, schedule: Q04DX003 (ip), vehicle: saline): 115 % of control
T/C (endpoint: mean survival time, dose: 80.0 mg/kg/injection, schedule: Q04DX003 (ip), vehicle: saline): 111 % of control

O=C(COc1ccccc1)NCCNC(=S)Nc1ccccc1
T/C (endpoint: mean survival time, dose: 100.0 mg/kg/injection, schedule: Q01DX001 (ip), vehicle: saline with Tween-80): 102 % of control
T/C (endpoint: mean survival time, dose: 200.0 mg/kg/injection, schedule: Q01DX001 (ip), vehicle: saline with Tween-80): 94 % of control
T/C (endpoint: mean survival time, dose: 400.0 mg/kg/injection, schedule: Q01DX001 (ip), vehicle: saline with Tween-80): 112 % of control

CCCCCC[C@@H](O)C/C=C\CCCCCCCC(=O)OCCO
T/C (endpoint: median survival time, dose: 25.0 mg/kg/injection, schedule: Q01DX009 (ip), vehicle: saline): 101 % of control
T/C (endpoint: median survival time, dose: 50.0 mg/kg/injection, schedule: Q01DX009 (ip), vehicle: saline): 100 % of control
T/C (endpoint: median survival time, dose: 100.0 mg/kg/injection, schedule: Q01DX009 (ip), vehicle: saline): 120 % of control
T/C (endpoint: median survival time, dose: 200.0 mg/kg/injection, schedule: Q01DX009 (ip), vehicle: saline): 106 % of control
T/C (endpoint: median survival time, dose: 400.0 mg/kg/injection, schedule: Q01DX009 (ip), vehicle: saline): 106 % of control
T/C (endpoint: median survival time, dose: 800.0 mg/kg/injection, schedule: Q01DX009 (ip), vehicle: saline): 101 % of control

Nc1csnn1
T/C [8]: 98 % of control
T/C [5]: 96 % of control
T/C [6]: 98 % of control

COc1c2ccoc2nc2ccc3c(c12)C=CC(C)(C)O3
T/C [8]: 98 % of control
T/C [5]: 104 % of control
T/C [6]: 104 % of control
T/C [7]: 98 % of control

Fc1cccc(/C=C2/c3cc(Cl)ccc3-c3c(Cl)cc(Cl)cc32)c1
T/C (endpoint: mean survival time, dose: 100.0 mg/kg/injection, schedule: Q01DX001 (ip), vehicle: Klucel (hydroxypropylcellulose) (HPC)): 93 % of control
T/C [1]: 88 % of control
T/C (endpoint: mean survival time, dose: 100.0 mg/kg/injection, schedule: Q04DX003 (ip), vehicle: Klucel (hydroxypropylcellulose) (HPC)): 91 % of control
T/C (endpoint: mean survival time, dose: 200.0 mg/kg/injection, schedule: Q01DX001 (ip), vehicle: Klucel (hydroxypropylcellulose) (HPC)): 91 % of control
T/C [2]: 89 % of control
T/C (endpoint: mean survival time, dose: 200.0 mg/kg/injection, schedule: Q04DX003 (ip), vehicle: Klucel (hydroxypropylcellulose) (HPC)): 93 % of control
T/C (endpoint: mean survival time, dose: 400.0 mg/kg/injection, schedule: Q01DX001 (ip), vehicle: Klucel (hydroxypropylcellulose) (HPC)): 88 % of control
T/C [3]: 96 % of control
T/C (endpoint: mean survival time, dose: 400.0 mg/kg/injection, schedule: Q04DX003 (ip), vehicle: Klucel (hydroxypropylcellulose) (HPC)): 88 % of control

O=c1c(-c2ccccc2)c(-c2ccccc2)c1=O
T/C (endpoint: mean survival time, dose: 75.0 mg/kg/injection, schedule: Q01DX001 (ip), vehicle: saline): 91 % of control
T/C (endpoint: mean survival time, dose: 150.0 mg/kg/injection, schedule: Q01DX001 (ip), vehicle: saline): 96 % of control

C[N+](C)(C)C1(Cc2ccc(Br)cc2)c2ccccc2-c2ccccc21
T/C (endpoint: mean survival time, dose: 25.0 mg/kg/injection, schedule: Q04DX003 (ip), vehicle: saline with Tween-80): 88 % of control

S=C(NCc1ccccc1)NCc1ccccc1
T/C (endpoint: mean survival time, dose: 100.0 mg/kg/injection, schedule: Q04DX002 (ip), vehicle: Klucel (hydroxypropylcellulose) (HPC)): 94 % of control and 87 % of control
T/C (endpoint: mean survival time, dose: 200.0 mg/kg/injection, schedule: Q04DX002 (ip), vehicle: Klucel (hydroxypropylcellulose) (HPC)): 87 % of control
T/C (endpoint: mean survival time, dose: 400.0 mg/kg/injection, schedule: Q04DX002 (ip), vehicle: Klucel (hydroxypropylcellulose) (HPC)): 90 % of control

O=CO.[Cd]
T/C (endpoint: mean survival time, dose: 5.0 mg/kg/injection, schedule: Q01DX001 (ip), vehicle: saline): 104 % of control

CC(C)(C)SCC(NC(=O)OCc1ccccc1)C(=O)O (stereo unspecified)
T/C (endpoint: mean survival time, dose: 50.0 mg/kg/injection, schedule: Q01DX009 (ip), vehicle: Klucel (hydroxypropylcellulose) (HPC)): 100 % of control
T/C (endpoint: mean survival time, dose: 75.0 mg/kg/injection, schedule: Q01DX001 (ip), vehicle: Klucel (hydroxypropylcellulose) (HPC)): 91 % of control
T/C [1]: 89 % of control
T/C (endpoint: mean survival time, dose: 150.0 mg/kg/injection, schedule: Q01DX001 (ip), vehicle: Klucel (hydroxypropylcellulose) (HPC)): 94 % of control
T/C (endpoint: mean survival time, dose: 300.0 mg/kg/injection, schedule: Q01DX001 (ip), vehicle: Klucel (hydroxypropylcellulose) (HPC)): 94 % of control

O=C(c1ccccc1)C1CSC1Br (stereo unspecified)
T/C (endpoint: mean survival time, dose: 100.0 mg/kg/injection, schedule: Q04DX003 (ip), vehicle: saline with Tween-80): 102 % of control
T/C (endpoint: mean survival time, dose: 200.0 mg/kg/injection, schedule: Q04DX003 (ip), vehicle: saline with Tween-80): 98 % of control
T/C (endpoint: mean survival time, dose: 400.0 mg/kg/injection, schedule: Q04DX003 (ip), vehicle: saline with Tween-80): 100 % of control
